From US20190375786A1, “STABLE PEPTIDES AND METHODS OF USE THEREOF” (Fred Hutchinson Cancer Research Center, priority 2016, published 2019)
Positions of bridges follow the written chain, without caps; N, C: chain ends. Residues, ends and D or L forms follow the SMILES beside them.

Legend:
trypsin = trypsin (Sus scrofa, UniProt P00761); test: Trypsin digestion resistance of soluble peptide, RP-HPLC; type: in vitro ADME, porcine; parameters: purchased Sigma Aldrich 6567; details: 30 minutes at 37.5° C.; for Resistance to Trypsin (500 U/ml): 500 U/ml trypsin, HPLC peak vs untreated peptide
Sequence of trypsin (P00761 9-231): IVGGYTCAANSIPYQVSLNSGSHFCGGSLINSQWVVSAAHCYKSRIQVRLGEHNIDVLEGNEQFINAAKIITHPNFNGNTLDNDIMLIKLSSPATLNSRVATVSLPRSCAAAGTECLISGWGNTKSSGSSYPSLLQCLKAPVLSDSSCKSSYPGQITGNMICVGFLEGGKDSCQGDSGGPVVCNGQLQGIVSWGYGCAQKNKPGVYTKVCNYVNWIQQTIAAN
Summary of the method: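 12.5 μg soluble peptide digested with 500 U/ml porcine trypsin in PBS, 30 min at 37.5° C; quenched with soybean trypsin inhibitor, with or without 10 mM DTT reduction afterwards. Intact peptide assessed by C-18 RP-HPLC, 5-45% acetonitrile/0.1% TFA gradient over 10 min.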

pepsin = pepsin (Sus scrofa, UniProt P00791); test: Pepsin digestion resistance in simulated gastric fluid, RP-HPLC; type: in vitro ADME, porcine; parameters: purchased Sigma Aldrich P7012; details: for Resistance to Pepsin (500 U/ml): 500 U/ml pepsin in SGF pH 1.05, 30 minutes at 37.5° C., HPLC peak vs untreated peptide
Sequence of pepsin (P00791 60-385): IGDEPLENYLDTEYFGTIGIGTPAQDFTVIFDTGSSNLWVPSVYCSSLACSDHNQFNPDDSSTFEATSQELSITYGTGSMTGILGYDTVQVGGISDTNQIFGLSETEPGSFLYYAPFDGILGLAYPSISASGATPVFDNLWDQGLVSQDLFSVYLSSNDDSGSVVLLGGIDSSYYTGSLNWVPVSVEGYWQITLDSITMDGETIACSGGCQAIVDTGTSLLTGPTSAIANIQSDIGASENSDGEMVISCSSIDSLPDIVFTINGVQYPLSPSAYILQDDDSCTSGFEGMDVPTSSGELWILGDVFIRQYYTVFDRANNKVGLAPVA
Summary of the method: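 Peptide (12.5 μg) incubated 30 min at 37.5 °C with or without 500 U/ml pepsin in simulated gastric fluid (pH 1.05; 2% NaCl in 0.7% HCl); some reactions quenched with 100 mM Tris and 10 mM DTT. Intact peptide followed by C-18 RP-HPLC (5–45% acetonitrile/0.1% TFA over 10 min) at 214 and 280 nm.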

SMILES | Resistance to Trypsin (500 U/ml) (trypsin) | Resistance to Pepsin (500 U/ml) (pepsin) | resistance to trypsin digestion (in words) (trypsin; 500 U/ml trypsin (50 U per reaction), HPLC) | resistance to pepsin digestion (in words) (pepsin; 500 U/ml pepsin (50 U per reaction) in SGF, 30 minutes at 37.5° C., HPLC)
CC[C@H](C)[C@@H]1NC(=O)[C@H](CCCNC(=N)N)NC(=O)[C@H]([C@@H](C)CC)NC(=O)[C@@H]2CSSC[C@@H](C(=O)N[C@@H](Cc3ccc(O)cc3)C(=O)N3CCC[C@H]3C(=O)O)NC(=O)[C@H](Cc3ccc(O)cc3)NC(=O)[C@@H]3CSSC[C@H](NC(=O)[C@H](CCC(=O)O)NC(=O)[C@H](CO)NC(=O)[C@H](CO)NC(=O)[C@H](CC(N)=O)NC(=O)[C@H](CC(N)=O)NC(=O)[C@@H](NC(=O)[C@H](CCCNC(=N)N)NC(=O)[C@H](CC(N)=O)NC(=O)[C@H](CO)NC(=O)[C@H](CC(C)C)NC(=O)[C@@H](NC(=O)[C@H](CCCCN)NC(=O)[C@H](CCC(N)=O)NC(=O)[C@H](CO)NC(=O)CN)[C@@H](C)CC)CSSC[C@H](NC(=O)[C@H](CCCCN)NC(=O)[C@H](C)NC(=O)[C@H](C)NC(=O)[C@H](CCCNC(=N)N)NC(=O)[C@H]([C@@H](C)O)NC(=O)CNC(=O)[C@H](Cc4ccccc4)NC1=O)C(=O)N[C@@H]([C@@H](C)CC)C(=O)N[C@@H](CC(N)=O)C(=O)N[C@@H](CCCNC(=N)N)C(=O)N[C@@H](CCCCN)C(=O)N3)C(=O)N[C@@H]([C@@H](C)CC)C(=O)N1CCC[C@H]1C(=O)N[C@@H](Cc1c[nH]cn1)C(=O)N2 [compound 6] (H-GSQKILSNRCNNSSECIPHCIRIFGTRAAKCINRKCYCYP-OH; disulfide 10-31, 16-36, 20-38) | High (A peptide classified as high indicates that the majority (at least 75%) of the HPLC peak of the treated peptide is still present as compared to the HPLC peak of the untreated peptide) | High (A peptide classified as high indicates that the majority (at least 75%) of the HPLC peak of the treated peptide is still present as compared to the HPLC peak of the untreated peptide) |  | 
CSCC[C@@H]1NC(=O)[C@@H]2CSSC[C@H](NC(=O)[C@H](CCCCN)NC(=O)[C@@H](NC(=O)[C@H](CC(=O)O)NC(=O)[C@@H](NC(=O)[C@H](Cc3ccccc3)NC(=O)[C@H](CCC(N)=O)NC(=O)[C@H](CO)NC(=O)CN)[C@@H](C)O)C(C)C)C(=O)N[C@@H]([C@@H](C)O)C(=O)NCC(=O)N[C@@H](CO)C(=O)N[C@@H](CCCCN)C(=O)N[C@@H](CCC(N)=O)C(=O)N[C@H]3CSSC[C@H](NC(=O)[C@H](CCCCN)NC(=O)CNC(=O)[C@H](CC(N)=O)NC1=O)C(=O)N[C@@H](CCCNC(=N)N)C(=O)N[C@H](C(=O)N[C@@H](Cc1ccc(O)cc1)C(=O)N[C@@H](CO)C(=O)O)CSSC[C@H](NC(=O)[C@H](C(C)C)NC(=O)[C@@H]1CCCN1C(=O)[C@H](Cc1c[nH]c4ccccc14)NC3=O)C(=O)N[C@@H](CCCCN)C(=O)N[C@@H](CCC(N)=O)C(=O)N[C@@H](CCSC)C(=O)N[C@@H](Cc1ccccc1)C(=O)NCC(=O)N[C@@H](CCCCN)C(=O)N1CCC[C@H]1C(=O)N[C@@H](CC(N)=O)C(=O)NCC(=O)N[C@@H](CCCCN)C(=O)N2 [SEQ ID NO: 12] (H-GSQFTDVKCTGSKQCWPVCKQMFGKPNGKCMNGKCRCYS-OH; disulfide 9-30, 15-35, 19-37) |  |  | moderately resistant | highly resistant
CC[C@H](C)[C@@H]1NC(=O)[C@@H]2CSSC[C@H](NC(=O)[C@H](CCCCN)NC(=O)[C@@H](NC(=O)[C@H](CC(N)=O)NC(=O)[C@@H](NC(=O)[C@@H]3CCCN3C(=O)[C@@H](NC(=O)CNC(=O)[C@H](CO)NC(=O)CN)C(C)C)[C@@H](C)CC)C(C)C)C(=O)N[C@@H](CCCNC(=N)N)C(=O)NCC(=O)N[C@@H](CO)C(=O)N[C@@H](CCCNC(=N)N)C(=O)N[C@@H](CC(=O)O)C(=O)N[C@H]3CSSC[C@H](NC(=O)[C@H](CCCCN)NC(=O)[C@H](CO)NC(=O)[C@H](CC(N)=O)NC1=O)C(=O)N[C@@H](Cc1c[nH]cn1)C(=O)N[C@H](C(=O)N[C@H](C(=O)N1CCC[C@H]1C(=O)O)[C@@H](C)O)CSSC[C@H](NC(=O)[C@@H]1CCCN1C(=O)[C@H](CC(=O)O)NC(=O)[C@H](CC(C)C)NC3=O)C(=O)N[C@@H](CCCCN)C(=O)N[C@@H](CCCCN)C(=O)N[C@@H](C)C(=O)NCC(=O)N[C@@H](CCSC)C(=O)N[C@@H](CCCNC(=N)N)C(=O)N[C@@H](Cc1ccccc1)C(=O)NCC(=O)N[C@@H](CCCCN)C(=O)N2 [compound 27] (H-GSGVPINVKCRGSRDCLDPCKKAGMRFGKCINSKCHCTP-OH; disulfide 10-30, 16-35, 20-37) | High (A peptide classified as high indicates that the majority (at least 75%) of the HPLC peak of the treated peptide is still present as compared to the HPLC peak of the untreated peptide) | High (A peptide classified as high indicates that the majority (at least 75%) of the HPLC peak of the treated peptide is still present as compared to the HPLC peak of the untreated peptide) |  | 
CC[C@H](C)[C@H](NC(=O)[C@@H](NC(=O)[C@@H](NC(=O)[C@H](CO)NC(=O)CN)C(C)C)C(C)C)C(=O)NCC(=O)N[C@@H](CCC(N)=O)C(=O)N[C@@H](CCCNC(=N)N)C(=O)N[C@H]1CSSC[C@@H]2NC(=O)[C@H](CCCCN)NC(=O)CNC(=O)[C@H]([C@@H](C)O)NC(=O)[C@H](C)NC(=O)[C@H](CCCCN)NC(=O)CNC(=O)[C@H](C(C)C)NC(=O)[C@H](CC(C)C)NC(=O)[C@H](CCCCN)NC(=O)[C@H](CCCCN)NC(=O)[C@@H]3CSSC[C@@H](C(=O)O)NC(=O)[C@H](CC(=O)O)NC(=O)[C@H](CSSC[C@H](NC(=O)[C@H](CC(=O)O)NC(=O)[C@@H]4CCCN4C(=O)[C@H](CO)NC(=O)[C@H](CCCNC(=N)N)NC(=O)[C@H](Cc4ccc(O)cc4)NC1=O)C(=O)N[C@@H](Cc1ccc(O)cc1)C(=O)N[C@@H](CO)C(=O)N[C@@H](C)C(=O)N3)NC(=O)[C@H](CCCNC(=N)N)NC(=O)CNC(=O)[C@H](CC(N)=O)NC(=O)[C@H]([C@@H](C)O)NC2=O [compound 36] (H-GSVVIGQRCYRSPDCYSACKKLVGKATGKCTNGRCDC-OH; disulfide 9-30, 15-35, 19-37) | Low (A peptide classified as low indicates that the majority (over 75%) of the HPLC peak of the treated peptide disappeared as compared to the HPLC peak of the untreated peptide) | High (A peptide classified as high indicates that the majority (at least 75%) of the HPLC peak of the treated peptide is still present as compared to the HPLC peak of the untreated peptide) |  | 
CC[C@H](C)[C@@H]1NC(=O)[C@@H]2CSSC[C@@H]3NC(=O)[C@H](CCC(N)=O)NC(=O)[C@H](CO)NC(=O)[C@H]([C@@H](C)O)NC(=O)[C@H](CC(N)=O)NC(=O)[C@H](CO)NC(=O)[C@@H](NC(=O)[C@H](CCCCN)NC(=O)[C@H](CCCCN)NC(=O)[C@H](CC(N)=O)NC(=O)[C@@H](NC(=O)[C@H](CO)NC(=O)[C@@H](NC(=O)[C@H](CCC(N)=O)NC(=O)[C@H](CO)NC(=O)CN)C(C)C)[C@@H](C)O)CSSC[C@H](NC(=O)[C@H](CCCCN)NC(=O)CNC(=O)[C@H](C)NC(=O)[C@H](C)NC(=O)[C@H](C(C)C)NC(=O)CNC(=O)[C@H](C(C)C)NC(=O)[C@H](C(C)C)NC(=O)[C@H](CCCCN)NC(=O)[C@H](CCC(=O)O)NC(=O)[C@H](CSSC[C@@H](C(=O)N[C@@H](Cc4ccc(O)cc4)C(=O)N4CCC[C@H]4C(=O)O)NC1=O)NC(=O)[C@H]([C@@H](C)O)NC(=O)[C@H](CCCCN)NC(=O)[C@H](Cc1ccc(O)cc1)NC3=O)C(=O)N[C@@H](CCSC)C(=O)N[C@@H](CC(N)=O)C(=O)NCC(=O)N[C@@H](CCCCN)C(=O)N2 [compound 18] (H-GSQVSTNKKCSNTSQCYKTCEKVVGVAAGKCMNGKCICYP-OH; disulfide 10-31, 16-36, 20-38) | Low (A peptide classified as low indicates that the majority (over 75%) of the HPLC peak of the treated peptide disappeared as compared to the HPLC peak of the untreated peptide) | High (A peptide classified as high indicates that the majority (at least 75%) of the HPLC peak of the treated peptide is still present as compared to the HPLC peak of the untreated peptide) |  | 
